ChEMBL document CHEMBL3286098, “α-Methylated simplified resiniferatoxin (sRTX) thiourea analogues as potent and stereospecific TRPV1 antagonists” (Bioorg Med Chem Lett, 2014)
Activity calls are given as the source filed them. The rule behind the calls is not given here.

Legend:
[1] = biological target: T1, Transient receptor potential cation channel subfamily V member 1 (Rattus norvegicus, UniProt O35433); assay: Displacement of [3H]RTX from rat TRPV1 after 60 mins by competitive binding assay
[2] = biological target: T1, Transient receptor potential cation channel subfamily V member 1; assay: Antagonist activity at rat TRPV1 heterologously expressed in CHO cells assessed as inhibition of capsaicin-induced [45Ca2+] uptake by liquid scintillation counting; format: cell-based
[3] = biological target: Transient receptor potential cation channel subfamily V member 1 (Rattus norvegicus) (UniProt O35433); assay: Agonist activity at rat TRPV1 heterologously expressed in CHO cells assessed as […] [45Ca2+] uptake by liquid scintillation counting; format: cell-based
Transient receptor potential cation channel subfamily V member 1 (Rattus norvegicus), sequence (O35433 whole entry): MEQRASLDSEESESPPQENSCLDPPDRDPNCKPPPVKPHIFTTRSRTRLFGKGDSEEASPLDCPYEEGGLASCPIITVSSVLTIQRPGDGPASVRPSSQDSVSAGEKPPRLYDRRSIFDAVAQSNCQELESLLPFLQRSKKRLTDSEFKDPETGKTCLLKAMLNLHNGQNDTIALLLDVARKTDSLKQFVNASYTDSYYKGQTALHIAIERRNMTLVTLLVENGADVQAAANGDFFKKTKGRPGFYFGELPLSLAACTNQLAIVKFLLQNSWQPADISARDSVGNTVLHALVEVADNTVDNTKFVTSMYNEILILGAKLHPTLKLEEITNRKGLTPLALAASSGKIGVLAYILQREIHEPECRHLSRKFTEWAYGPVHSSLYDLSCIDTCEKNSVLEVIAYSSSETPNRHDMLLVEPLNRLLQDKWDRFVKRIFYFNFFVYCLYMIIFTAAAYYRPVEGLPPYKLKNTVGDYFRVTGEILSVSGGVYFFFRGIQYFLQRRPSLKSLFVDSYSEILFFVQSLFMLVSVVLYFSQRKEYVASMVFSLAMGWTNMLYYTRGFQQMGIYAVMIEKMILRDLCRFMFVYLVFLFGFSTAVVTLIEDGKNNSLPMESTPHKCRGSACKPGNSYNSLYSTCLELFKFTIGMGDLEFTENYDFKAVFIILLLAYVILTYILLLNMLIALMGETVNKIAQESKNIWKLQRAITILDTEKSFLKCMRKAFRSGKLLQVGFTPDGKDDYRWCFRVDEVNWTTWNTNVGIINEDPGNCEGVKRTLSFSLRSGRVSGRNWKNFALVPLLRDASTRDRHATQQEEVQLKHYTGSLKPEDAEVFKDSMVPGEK

T1 sequence (O35433 whole entry): as above

Row | Compound | Ki [1] [nM] | Ki [2] [nM] | Activity [3]
1 | Cc1ccc(C[C@H](CNC(=S)NCc2ccc(NS(C)(=O)=O)cc2)COC(=O)C(C)(C)C)cc1C | 29.3 | 67 | 
2 | CC(C)(C)C(=O)OC[C@@H](CNC(=S)NCc1ccc(NS(C)(=O)=O)cc1)Cc1ccccc1 | 252 | 64.3 | inactive
3 | Cc1ccc(C[C@H](CNC(=S)N[C@H](C)c2ccc(NS(C)(=O)=O)cc2)COC(=O)C(C)(C)C)cc1C |  |  | inactive
4 | C[C@@H](NC(=S)NCC(COC(=O)C(C)(C)C)Cc1ccc(C(C)(C)C)cc1)c1ccc(NS(C)(=O)=O)cc1 (stereo not given in full) |  |  | inactive
5 | Cc1ccc(CC(CNC(=S)NC(C)c2ccc(NS(C)(=O)=O)cc2)COC(=O)C(C)(C)C)cc1C (racemic) |  |  | inactive
6 | Cc1ccc(CC(CNC(=S)N[C@H](C)c2ccc(NS(C)(=O)=O)cc2)COC(=O)C(C)(C)C)cc1C (stereo not given in full) |  |  | inactive
7 | C[C@@H](NC(=S)N[C@@H](COC(=O)C(C)(C)C)Cc1ccccc1)c1ccc(NS(C)(=O)=O)cc1 |  |  | inactive
8 | CC(NC(=S)NCC(COC(=O)C(C)(C)C)Cc1ccc(C(C)(C)C)cc1)c1ccc(NS(C)(=O)=O)cc1 (racemic) |  |  | inactive
9 | C[C@@H](NC(=S)NC[C@H](COC(=O)C(C)(C)C)Cc1ccc(C(C)(C)C)cc1)c1ccc(NS(C)(=O)=O)cc1 | 17.9 |  | inactive
10 | CC(C)(C)C(=O)OC[C@H](CNC(=S)NCc1ccc(NS(C)(=O)=O)cc1)Cc1ccccc1 | 236 | 80.6 | inactive
11 | C[C@H](NC(=S)N[C@H](COC(=O)C(C)(C)C)Cc1ccccc1)c1ccc(NS(C)(=O)=O)cc1 |  |  | inactive
12 | C[C@H](NC(=S)N[C@@H](COC(=O)C(C)(C)C)Cc1ccccc1)c1ccc(NS(C)(=O)=O)cc1 |  |  | inactive
13 | C[C@@H](NC(=S)NC[C@@H](COC(=O)C(C)(C)C)Cc1ccc(C(C)(C)C)cc1)c1ccc(NS(C)(=O)=O)cc1 | 6.75 |  | inactive
14 | C[C@@H](NC(=S)N[C@H](COC(=O)C(C)(C)C)Cc1ccccc1)c1ccc(NS(C)(=O)=O)cc1 |  |  | inactive
15 | Cc1ccc(C[C@@H](CNC(=S)N[C@H](C)c2ccc(NS(C)(=O)=O)cc2)COC(=O)C(C)(C)C)cc1C | 2.12 | 13.2 | inactive
16 | CC(C)(C)C(=O)OC[C@@H](CNC(=S)NCc1ccc(NS(C)(=O)=O)cc1)Cc1ccc(C(C)(C)C)cc1 | 64 | 86 | 
17 | C[C@H](NC(=S)NC[C@@H](COC(=O)C(C)(C)C)Cc1ccccc1)c1ccc(NS(C)(=O)=O)cc1 |  |  | inactive
18 | C[C@@H](NC(=S)NC[C@H](COC(=O)C(C)(C)C)Cc1ccccc1)c1ccc(NS(C)(=O)=O)cc1 |  |  | inactive
19 | C[C@H](NC(=S)NC[C@H](COC(=O)C(C)(C)C)Cc1ccccc1)c1ccc(NS(C)(=O)=O)cc1 |  |  | inactive
20 | C[C@@H](NC(=S)NC[C@@H](COC(=O)C(C)(C)C)Cc1ccccc1)c1ccc(NS(C)(=O)=O)cc1 |  |  | inactive
